“And” between values parts separate entries of the source, which are not always exact repeats. Identical values can stand only once. No end group written: not given here.
System: murine B16 melanoma cells
Assay: Anti-tumor efficacy (tumor size, tumor volume, tumor weight) in C57BL/6 mice bearing subcutaneous B16 melanoma
Assay type: in vivo
Conditions: for PI (TV), percent inhibition of tumor volume vs vehicle / Tumor Volume (Mean ± SD): low-dose arms: TA-1 6 mg/kg s.c. daily, Pac 10 + Ele 10 mg/kg co-i.v. Days 1, 7, 13
Protocol: In this study, the anti-tumor effect of the combined treatment of thymosin alpha-1 (TA-1), Paclitaxel (Pac) and Elesclomol (Ele) was evaluated in C57BL/6 mice bearing B16 melanoma cells. The toxic effects of the dosing regimens were also monitored. A total of 60 mice were implanted subcutaneously with murine B16 cells, followed by treatment with TA-1 or Pac/Ele alone or in combination for 14 consecutive days. TA-1 was given daily via s.c., while Pac and Ele were co-i.v. administered on Day 1, 7 and 13. In total, 6 groups were used: Group 1: vehicle; Group 2: TA-1 6 mg/kg; Group 3: Pac 10 mg/kg+Ele 10 mg/kg; Group 4: Pac 30 mg/kg+Ele 30 mg/kg; Group 5: TA-1 6 mg/kg+Pac 10 mg/kg+Ele 10 mg/kg; and Group 6: TA-1 6 mg/kg+Pac 30 mg/kg+Ele 30 mg/kg. Tumor volume and body weight were measured every three days, and tumor weights were measured on Day 17 at the end of the study.
Murine B16 melanoma cells were thawed from the stock of Cell Culture Center, Institute of Basic Medical Sciences, Peking Union Medical College and Chinese Academy of Medical Sciences (PUMC & CAMS, Beijing, P. R. China). The tumor cells were adapted in C57BL/6 mice before use in the experiment (Refer to Section 4.3.1 for details on cell adaptation).
Using aseptic tissue culture procedures, one vial of B16 melanoma cells was removed from the liquid nitrogen stock, and placed into a 37° C. water bath. Gentle swirling was conducted until the content of the vial was thawed. Once thawed, the cells were immediately centrifuged with a TD5A-WS centrifuge at 1000 rpm, 20-25° C., 5 min. After centrifugation, the cells were suspended in […] normal saline (NS) and subcutaneously injected into 10 mice (0.1 mL/mouse, about 1×10^6 cells). After 7-10 days, when the tumor diameter was approximately 1 cm, the animals were euthanized with CO2 overdose and the tumors excised. The procedure was repeated with 20 mice to generate a sufficient number of B16 melanoma cells with adequate transplantability.
On the day of tumor implantation, approximately 1×10^6 cells in 0.1 mL were subcutaneously injected on the right axillary area of each mouse. The day of tumor implantation was defined as Day 0.
On Day 1, the animals were randomly assigned into different weight-matched groups, and dosing was started using the regimen according to Table 2. Briefly, TA-1 was administered once daily via subcutaneous (s.c.) injection for 14 consecutive days at a site different from that of tumor cell implantation, while Pac and Ele was administered on Days 1, 7, and 13 via an intravenous (i.v.) injection.
From Day 1 to Day 15, mortality and moribundity were checked twice daily, the body weights were recorded once every 3 days, and tumors were measured using a caliper once every 3 days. At the end of the study (Day 17), the animals were euthanized by CO2 asphyxiation, and the tumors were excised and weighed.
Based on the tumor size, the tumor volume (TV) was calculated with the formula: [TV=(Length×Width×Width)/2]. And the percent inhibition (PI) of TV (PITV) was calculated according to the equation below:
PITV(%)=(TV vehicle−TVdrug treated)/TV vehicle×100
The anti-tumor effect of the test article was further evaluated with tumor weight (TW) measured on day of necropsy (Day 17). The PI of TW was calculated using the equation below:
PITW(%)=100×(TW vehicle−TW drug treated)/TW vehicle
The calculations of PITV and PITW were performed using an Excel spreadsheet and reviewed by the Study Director and Study Monitor.
Inter-group comparison was performed in terms of tumor volume, tumor weight and body weight, using a student's t test. P values of less than 0.05 were considered to be statistically significant.

[1] = Day 3, individual animals F1-F5, M1-M5, low-dose arms: TA-1 6 mg/kg, Pac 10 + Ele 10 mg/kg
[2] = Day 6, individual animals F1-F5, M1-M5, low-dose arms: TA-1 6 mg/kg, Pac 10 + Ele 10 mg/kg
[3] = Day 9, individual animals F1-F5, M1-M5, low-dose arms: TA-1 6 mg/kg, Pac 10 + Ele 10 mg/kg

## thymosin alpha 1 (SDAAVDTSSEITTKDLKEKKEVVEEAEN; ends and bridges not checked; UniProt P06454 2-29, looked up) [TA-1, 28 amino acid peptide with a molecular weight of 3108; immunomodulator]
[1]
  Tumor measurements, L (length): 0.1 cm (2×) and 0.2 cm (2×)
  Tumor measurements, W (width): 0.1 cm (2×) and 0.2 cm (2×)
Day 3, individual animals F1-F5, M1-M5, low-dose arms: TA-1 6 mg/kg, Pac 10 + Ele 10 mg/kg, female mice
  Tumor volumes: 0 cm^3 (4×) and 0.0005 cm^3
Day 3, individual animals F1-F5, M1-M5, low-dose arms: TA-1 6 mg/kg, Pac 10 + Ele 10 mg/kg, male mice
  Tumor volumes: 0 cm^3 (2×) and 0.004 cm^3 (2×) and 0.0005 cm^3
Day 3
  PI (TV), percent inhibition of tumor volume vs vehicle: −50.00%
  Tumor Volume (Mean ± SD): 0.0009 ± 0.0016 cm^3
[2]
  Tumor measurements, L (length): 0.3 cm and 0.2 cm (2×) and 0.1 cm
  Tumor measurements, W (width): 0.3 cm and 0.2 cm (2×) and 0.1 cm
Day 6, individual animals F1-F5, M1-M5, low-dose arms: TA-1 6 mg/kg, Pac 10 + Ele 10 mg/kg, female mice
  Tumor volumes: 0 cm^3 (4×) and 0.0135 cm^3
Day 6, individual animals F1-F5, M1-M5, low-dose arms: TA-1 6 mg/kg, Pac 10 + Ele 10 mg/kg, male mice
  Tumor volumes: 0 cm^3 (2×) and 0.004 cm^3 (2×) and 0.0005 cm^3
Day 6
  PI (TV), percent inhibition of tumor volume vs vehicle: 58.49%
  Tumor Volume (Mean ± SD): 0.0022 ± 0.0043 cm^3
Day 9, animal F1
  Tumor volumes: 0.0005 cm^3
Day 9, animal F2
  Tumor volumes: 0 cm^3
Day 9, animal F3
  Tumor volumes: 0 cm^3
Day 9, animal F4
  Tumor volumes: 0 cm^3
Day 9, animal F5
  Tumor volumes: 0.0135 cm^3
Day 9, animal M1
  Tumor volumes: 0.004 cm^3
Day 9, animal M2
  Tumor volumes: 0.004 cm^3
Day 9, animal M3
  Tumor volumes: 0.004 cm^3
Day 9, animal M4
  Tumor volumes: 0 cm^3
Day 9, animal M5
  Tumor volumes: 0 cm^3
[3]
  Tumor measurements, L (length): 0.3 cm and 0.2 cm (3×) and 0.1 cm
  Tumor measurements, W (width): 0.3 cm and 0.2 cm (3×) and 0.1 cm
Day 9
  PI (TV), percent inhibition of tumor volume vs vehicle: 88.26%
  Tumor Volume (Mean ± SD): 0.0026 ± 0.0043 cm^3
Day 12, animal F1
  Tumor measurements L: 0.1 cm
  Tumor measurements W: 0.1 cm
  Tumor volumes: 0.0005 cm^3
Day 12, animal F2
  Tumor measurements L: 0.2 cm
  Tumor measurements W: 0.2 cm
  Tumor volumes: 0.004 cm^3
Day 12, animal F3
  Tumor measurements L: 0.2 cm
  Tumor measurements W: 0.2 cm
  Tumor volumes: 0.004 cm^3
Day 12, animal F4
  Tumor measurements L: 0.1 cm
  Tumor measurements W: 0.1 cm
  Tumor volumes: 0.0005 cm^3
Day 12, animal F5
  Tumor measurements L: 0.3 cm
  Tumor measurements W: 0.3 cm
  Tumor volumes: 0.0135 cm^3
Day 12, animal M1
  Tumor measurements L: 0.2 cm
  Tumor measurements W: 0.2 cm
  Tumor volumes: 0.004 cm^3
Day 12, animal M2
  Tumor measurements L: 0.2 cm
  Tumor measurements W: 0.2 cm
  Tumor volumes: 0.004 cm^3
Day 12, animal M3
  Tumor measurements L: 0.2 cm
  Tumor measurements W: 0.2 cm
  Tumor volumes: 0.004 cm^3
Day 12, animal M4
  Tumor measurements L: 0.2 cm
  Tumor measurements W: 0.2 cm
